What was measured:
[1] = CC50 assay (CellTiter-Glo) in Huh-7 HCV replicon cells; assay type: cell-based, human; conditions: human, 3 days incubation, CellTiter-Glo readout
How it was run: (§1)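 Cytotoxicity (CC50) measured by CellTiter-Glo and antiviral activity (EC50) by luciferase signal from lysed cells, both by luminescence. Replicon-bearing Huh-7 cells, 6000 per well, incubated 3 days at 37 °C with threefold-diluted compound (0.5% DMSO for DMSO-dissolved compounds).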

[2] = system: HCV replicon in human hepatoma Huh-7 cell line; assay: Anti-HCV replicon assay (EC50, luciferase); assay type: cell-based; conditions: Hepatitis C virus, Huh-7, 72 h
How it was run: as §1

Compound | CC50 at 3 days [1] [µM] | EC50 [2] [µM]
NS(=O)(=O)c1ccc(CNc2nc(NCC(F)(F)F)c3nc(-c4cccc(S(N)(=O)=O)c4)ccc3n2)cc1 [Example 232, 3-[2-(4-sulfamoyl-benzylamino)-4-(2,2,2-trifluoro-ethylamino)-pyrido[3,2-d]pyrimidin-6-yl]-benzenesulfonamide] | > 25 | < 0.1
CCOc1nc(NCc2ccc(F)cc2)nc2ccc(-c3ccc(NC(=O)OCCN4CCCC4)cc3)nc12 [Example 92, {4-[4-Ethoxy-2-(4-fluoro-benzylamino)-pyrido[3,2-d]pyrimidin-6-yl]-phenyl}-carbamic acid 2-pyrrolidin-1-yl-ethyl ester] | < 5 | < 0.1
CCOc1nc(NCc2ccc(F)cc2)nc2ccc(-c3ccc(C(=O)NC(C)(C)CN4CCCC4)cc3)nc12 [Example 95, N-(1,1-Dimethyl-2-pyrrolidin-1-yl-ethyl)-4-[4-ethoxy-2-(4-fluoro-benzylamino)-pyrido[3,2-d]pyrimidin-6-yl]-benzamide] | < 5 | < 0.1
CC(C)(CN1CCCC1)NC(=O)c1ccc(-c2ccc3nc(NCc4ccc(S(N)(=O)=O)cc4)nc(NCC(F)(F)F)c3n2)cc1 [Example 199, N-(1,1-Dimethyl-2-pyrrolidin-1-yl-ethyl)-4-[2-(4-sulfamoyl-benzylamino)-4-(2,2,2-trifluoro-ethylamino)-pyrido[3,2-d]pyrimidin-6-yl]-benzamide] | < 5 | < 0.1
NS(=O)(=O)c1ccc(CNc2nc(NCC(F)(F)F)c3nc(-c4ccc(F)cc4)ccc3n2)c(F)c1 [Example 246, 3-Fluoro-4-{[6-(4-fluoro-phenyl)-4-(2,2,2-trifluoro-ethylamino)-pyrido[3,2-d]pyrimidin-2-ylamino]-methyl}-benzenesulfonamide] | 5 to 25 | < 0.1
CCOc1nc(NCc2ccc(F)cc2)nc2ccc(-c3ccc(NC(=O)[C@@H]4CCCN4)cc3)nc12 [Example 89, Pyrrolidine-2-carboxylic acid {4-[4-ethoxy-2-(4-fluoro-benzylamino)-pyrido[3,2-d]pyrimidin-6-yl]-phenyl}-amide] | < 5 | < 0.1
CCOc1nc(NCc2ccc(Cl)cc2F)nc2ccc(-c3ccc(F)cc3)nc12 [Example 38, (4-Chloro-2-fluoro-benzyl)-[4-ethoxy-6-(4-fluoro-phenyl)-pyrido[3,2-d]pyrimidin-2-yl]-amine] | 5 to 25 | < 0.1
CCOc1nc(NCc2ccc(S(N)(=O)=O)cc2)nc2ccc(-c3ccc(NC(=O)[C@@H](N)[C@@H](C)O)cc3)nc12 [Example 147, 2-Amino-N-{4-[4-ethoxy-2-(4-sulfamoyl-benzylamino)-pyrido[3,2-d]pyrimidin-6-yl]-phenyl}-3-hydroxy-butyramide] | < 5 | < 0.1
CCOc1nc(NCc2ccc(F)cc2)nc2ccc(-c3ccc(C(=O)NC(C)(C)CN4CCOCC4)cc3)nc12 [Example 103, N-(1,1-Dimethyl-2-morpholin-4-yl-ethyl)-4-[4-ethoxy-2-(4-fluoro-benzylamino)-pyrido[3,2-d]pyrimidin-6-yl]-benzamide] | < 5 | < 0.1
CCOc1nc(NCc2ccc(S(N)(=O)=O)cc2)nc2ccc(-c3ccc(C(=O)NC(C)(C)CN4CCCC4)cc3)nc12 [Example 142, 4-{[4-Ethoxy-6-(4-(N-(2-(pyrrolidin-1-yl)methyl-2-propyl)-carbamoyl)phenyl)-pyrido[3,2-d]pyrimidin-2-ylamino]-methyl}-benzenesulfonamide] | < 5 | < 0.1
NS(=O)(=O)c1ccc(CNc2nc(NCC(F)(F)F)c3nc(-c4ccc(F)c(S(=O)(=O)N[C@@H]5CCNC5)c4)ccc3n2)cc1 [Example 213, 2-Fluoro-N-pyrrolidin-3-yl-5-[2-(4-sulfamoyl-benzylamino)-4-(2,2,2-trifluoro-ethylamino)-pyrido[3,2-d]pyrimidin-6-yl]-benzenesulfonamide] | < 5 | < 0.1
Nc1ncc(-c2ccc3nc(NCc4ccc(S(N)(=O)=O)cc4)nc(NCC(F)(F)F)c3n2)cn1 [Example 174, 4-{[6-(2-Amino-pyrimidin-5-yl)-4-(2,2,2-trifluoro-ethylamino)-pyrido[3,2-d]pyrimidin-2-ylamino]-methyl}-benzenesulfonamide] | > 25 | < 0.1
C[C@H](N)C(=O)Nc1ccc(-c2ccc3nc(NCc4ccc(S(N)(=O)=O)cc4)nc(NCC(F)(F)F)c3n2)cc1Cl [Example 207, 2-Amino-N-{2-chloro-4-[2-(4-sulfamoyl-benzylamino)-4-(2,2,2-trifluoro-ethylamino)-pyrido[3,2-d]pyrimidin-6-yl]-phenyl}-propionamide] | < 5 | < 0.1
CS(=O)(=O)CCNc1nc(NCc2ccc(F)cc2)nc2ccc(-c3ccc(C(N)=O)cc3)nc12 [Example 274, 4-[2-(4-Fluoro-benzylamino)-4-(2-methanesulfonyl-ethylamino)-pyrido[3,2-d]pyrimidin-6-yl]-benzamide] | < 5 | < 0.1
Fc1ccc(-c2ccc3nc(NCc4ccc(-n5cncn5)cc4)nc(NCC(F)(F)F)c3n2)cc1 [Example 251, 6-(4-Fluoro-phenyl)-N2-(4-[1,2,4]triazol-1-yl-benzyl)-N4-(2,2,2-trifluoro-ethyl)-pyrido[3,2-d]pyrimidine-2,4-diamine] | > 25 | < 0.1
C[C@H](O)C(=O)Nc1ccc(-c2ccc3nc(NCc4ccc(S(N)(=O)=O)cc4)nc(NCC(F)(F)F)c3n2)cc1 [Example 210, 2-Hydroxy-N-{4-[2-(4-sulfamoyl-benzylamino)-4-(2,2,2-trifluoro-ethylamino)-pyrido[3,2-d]pyrimidin-6-yl]-phenyl}-propionamide] | > 25 | < 0.1
CCOc1nc(NCc2ccc(CS(=O)(=O)NC)cc2)nc2ccc(-c3ccc(F)cc3)nc12 [Example 269, C-(4-{[4-Ethoxy-6-(4-fluoro-phenyl)-pyrido[3,2-d]pyrimidin-2-ylamino]-methyl}-phenyl)-N-methyl-methanesulfonamide] | 5 to 25 | < 0.1
CS(=O)(=O)C1CCN(c2nc(NCc3ccc(F)cc3)nc3ccc(-c4ccc(F)cc4)nc23)C1 (centres unmarked) [Example 27, (4-Fluoro-benzyl)-[6-(4-fluoro-phenyl)-4-(3-methanesulfonyl-pyrrolidin-1-yl)-pyrido[3,2-d]pyrimidin-2-yl]-amine] | < 5 | < 0.1
NS(=O)(=O)c1ccc(CNc2nc(OC3CCCC3)c3nc(-c4ccc(F)cc4)ccc3n2)cc1 [Example 110, 4-{[4-Cyclopentyloxy-6-(4-fluoro-phenyl)-pyrido[3,2-d]pyrimidin-2-ylamino]-methyl}-benzenesulfonamide] | 5 to 25 | < 0.1
CS(=O)(=O)CCNc1nc(NCc2ccc(S(N)(=O)=O)cc2)nc2ccc(-c3ccc(C(=O)NC4CC4)cc3)nc12 [Example 162, 4-{[4-(2-Methanesulfonylethyl)-amino-6-(4-(N-cyclopropylcarbamoyl)-phenyl)-pyrido[3,2-d]pyrimidin-2-ylamino]-methyl}-benzenesulfonamide] | > 25 | 0.1 to 0.25
CCOc1nc(NCc2ccc(F)cc2)nc2ccc(-c3ccc(NC(=O)C4CC4)cc3)nc12 [Example 67, Cyclopropanecarboxylic acid {4-[4-ethoxy-2-(4-fluoro-benzylamino)-pyrido[3,2-d]pyrimidin-6-yl]-phenyl}-amide] | 5 to 25 | < 0.1
CCOc1nc(NCc2ccc(F)cc2)nc2ccc(-c3cccc(NS(=O)(=O)CCN4CCCC4)c3)nc12 [Example 81, 2-Pyrrolidin-1-yl-ethanesulfonic acid {3-[4-ethoxy-2-(4-fluoro-benzylamino)-pyrido[3,2-d]pyrimidin-6-yl]-phenyl}-amide] | < 5 | < 0.1
CCOc1nc(NCc2ccc(F)cc2)nc2ccc(-c3ccc(N4CC(O)CC4=O)cc3)nc12 (centres unmarked) [Example 76, 1-{4-[4-Ethoxy-2-(4-fluoro-benzylamino)-pyrido[3,2-d]pyrimidin-6-yl]-phenyl}-4-hydroxy-pyrrolidin-2-one] | 5 to 25 | < 0.1
Fc1ccc(-c2ccc3nc(NCc4ncco4)nc(NCC(F)(F)F)c3n2)cc1 [Example 253, 6-(4-Fluoro-phenyl)-N2-oxazol-2-ylmethyl-N4-(2,2,2-trifluoro-ethyl)-pyrido[3,2-d]pyrimidine-2,4-diamine] | < 5 | < 0.1
CC(C)Nc1cnn(-c2ccc3nc(NCc4ccc(S(N)(=O)=O)cc4)nc(NCC(F)(F)F)c3n2)c1 [Example 284, 4-{[6-(4-Isopropylamino-pyrazol-1-yl)-4-(2,2,2-trifluoro-ethylamino)-pyrido[3,2-d]pyrimidin-2-ylamino]-methyl}-benzenesulfonamide] | > 25 | < 0.1
CCOc1nc(NCc2cocn2)nc2ccc(-c3ccc(F)cc3)nc12 [Example 115, [4-Ethoxy-6-(4-fluoro-phenyl)-pyrido[3,2-d]pyrimidin-2-yl]-oxazol-4-ylmethyl-amine] | 5 to 25 | < 0.1
CCOc1nc(NCc2ccc(F)c(Cl)c2)nc2ccc(-c3ccc(F)cc3)nc12 [Example 42, (3-Chloro-4-fluoro-benzyl)-[4-ethoxy-6-(4-fluoro-phenyl)-pyrido[3,2-d]pyrimidin-2-yl]-amine] | 5 to 25 | < 0.1
CS(=O)(=O)CCNc1nc(NCc2ccc(F)cc2)nc2ccc(-c3cnc(N)s3)nc12 [Example 282, 6-(2-Amino-thiazol-5-yl)-N2-(4-fluoro-benzyl)-N4-(2-methanesulfonyl-ethyl)-pyrido[3,2-d]pyrimidine-2,4-diamine] | > 25 | < 0.1
